The experiment addresses T1, HCMV polymerase (Human cytomegalovirus, UniProt P08546).
T1 construct: made in house; host or cells: SF-9 insect cells infected with recombinant baculovirus
Description: HCMV polymerase assay (scintillation proximity assay). Particulars: percentage of inhibition at 25 μM concentration in CMV polymerase assay. It counts as biochemical. How it is done:
The compounds of the present invention are tested in an polymerase assay to show activity described below, which is indicative of a compound's activity and thus of its use as an anti-viral agent.
The HCMV polymerase assay is performed using a scintillation proximity assay (SPA) as described in several references, such as N. D. Cook, et al., Pharmaceutical Manufacturing International, pages 49-53 (1992); K. Takeuchi, Laboratory Practice, September issue (1992); U.S. Pat. No. 4,568,649 (1986); which are incorporated by reference herein. Reactions are performed in 96-well plates. The assay is conducted in 100 μl volume with 5.4 mM HEPES (pH 7.5), 11.7 mM KCl, 4.5 mM MgCl2, 0.36 mg/ml BSA, and 90 nM ^3 H-dTTP. Assays are run with and without CHAPS, (3-[(3-Cholamidopropyl)-dimethylammonio]-1-propanesulfonate) at a final concentration of 2 mM. HCMV is diluted in enzyme dilution buffer containing 50% glycerol, 250 mM NaCl, 10 mM HEPES (pH 7.5), 100 μg/ml BSA, and 0.01% sodium azide. The HCMV polymerase, which is expressed in recombinant baculovirus-infected SF-9 cells and purified according to literature procedures, is added at 10% (or 10 μl) of the final reaction volume, i.e., 100 μl. Compounds are diluted in 50% DMSO and 10 μl are added to each well. Control wells contain an equivalent concentration of DMSO. Unless noted otherwise, reactions are initiated via the addition of 6 nM biotinylated poly(dA)-oligo(dT) template/primer to reaction mixtures containing the enzyme, substrate, and compounds of interest. Plates are incubated in a 25° C. or 37° C. H2 O bath and terminated via the addition of 40 μl/reaction of 0.5 M EDTA (pH 8) per well. Reactions are terminated within the time-frame during which substrate incorporation is linear and varied depending upon the enzyme and conditions used, i.e., 30 min. for HCMV polymerase. Ten μl of streptavidin-SPA beads (20 mg/ml in PBS/10% glycerol) are added following termination of the reaction. Plates are incubated 10 min. at 37° C., then equilibrated to room temperature, and counted on a Packard Topcount.
In TABLE 1, "MS" refers to mass spectral data, "% inhib" refers to percentage of inhibition at 25 μM concentration in CMV polymerase assay.
T1 sequence (P08546 whole entry): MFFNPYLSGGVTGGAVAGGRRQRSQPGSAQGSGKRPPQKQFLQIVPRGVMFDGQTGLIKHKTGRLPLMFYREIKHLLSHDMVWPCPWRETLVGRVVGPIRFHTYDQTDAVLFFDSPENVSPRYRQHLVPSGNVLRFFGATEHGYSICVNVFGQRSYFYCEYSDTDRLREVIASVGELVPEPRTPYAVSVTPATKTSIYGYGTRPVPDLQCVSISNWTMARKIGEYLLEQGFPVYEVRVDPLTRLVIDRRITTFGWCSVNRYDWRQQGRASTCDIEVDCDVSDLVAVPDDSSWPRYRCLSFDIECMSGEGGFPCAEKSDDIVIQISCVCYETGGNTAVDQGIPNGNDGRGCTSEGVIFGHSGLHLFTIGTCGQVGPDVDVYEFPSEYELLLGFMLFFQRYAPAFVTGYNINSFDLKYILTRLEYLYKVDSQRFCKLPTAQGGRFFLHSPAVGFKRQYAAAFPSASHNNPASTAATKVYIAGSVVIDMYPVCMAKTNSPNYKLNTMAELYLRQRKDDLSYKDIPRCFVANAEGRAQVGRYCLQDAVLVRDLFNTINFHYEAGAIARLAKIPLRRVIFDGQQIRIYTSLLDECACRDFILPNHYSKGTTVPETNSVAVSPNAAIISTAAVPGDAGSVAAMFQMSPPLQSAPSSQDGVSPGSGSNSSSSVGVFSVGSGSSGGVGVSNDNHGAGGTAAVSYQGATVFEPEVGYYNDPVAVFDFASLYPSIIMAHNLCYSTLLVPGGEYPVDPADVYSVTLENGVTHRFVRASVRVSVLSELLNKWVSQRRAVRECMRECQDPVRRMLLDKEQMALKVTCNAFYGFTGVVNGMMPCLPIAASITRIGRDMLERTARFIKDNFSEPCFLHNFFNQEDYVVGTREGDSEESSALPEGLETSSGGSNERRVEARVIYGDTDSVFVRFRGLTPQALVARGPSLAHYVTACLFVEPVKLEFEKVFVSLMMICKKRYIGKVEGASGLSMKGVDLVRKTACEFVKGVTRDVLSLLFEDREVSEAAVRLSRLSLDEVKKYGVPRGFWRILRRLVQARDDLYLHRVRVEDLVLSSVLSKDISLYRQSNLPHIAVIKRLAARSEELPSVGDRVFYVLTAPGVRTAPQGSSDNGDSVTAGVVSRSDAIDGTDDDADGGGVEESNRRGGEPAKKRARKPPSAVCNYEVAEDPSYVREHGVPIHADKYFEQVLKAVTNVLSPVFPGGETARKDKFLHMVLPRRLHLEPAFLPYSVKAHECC
`NS(=O)(=O)c1ccc(CCNc2nnc(NC(=O)c3ccc(C(F)(F)F)cc3)s2)cc1` [compound 446, N-(5-{[4-(aminosulfonyl)phenethyl]amino}-1,3,4-thiadiazol-2-yl)-4-(trifluoromethyl)benzamide]: the inhibition at 25 µM was determined as 21.8%. Same read-out and setting: as for `CCOc1ccc2ccccc2c1C(=O)Nc1nnc(NCCc2c[nH]cn2)s1` [compound 89, 2-ethoxy-N-(5-{[2-(1H-imidazol-4-yl)ethyl]amino}-1,3,4-thiadiazol-2-yl)-1-naphthamide], the figure is 66.3%. Take `O=C(Nc1nnc(NC2CCCCCC2)s1)c1ccc(I)cc1` [compound 288, N-[5-(cycloheptylamino)-1,3,4-thiadiazol-2-yl]-4-iodobenzamide]: the inhibition at 25 µM turned out to be 36.2%. Still for that read-out and setting: for `CC(=O)NCCNc1nnc(NC(=O)c2cc3ccccc3s2)s1` [compound 412, N-(5-{[2-(acetylamino)ethyl]amino}-1,3,4-thiadiazol-2-yl)-1-benzothiophene-2-carboxamide] the value was 24.7%; for `CCCCCCCC/C=C/CCCCCCCC(=O)Nc1nnc(NCCN(C)C)s1` [compound 23, (E)-N-(5-{[2-(dimethylamino)ethyl]amino}-1,3,4-thiadiazol-2-yl)-9-octadecenamide], 97%.

`N#Cc1ccc(C(=O)Nc2nnc(NCc3ccc(F)cc3)s2)cc1` [compound 74, 4-cyano-N-{5-[(4-fluorobenzyl)amino]-1,3,4-thiadiazol-2-yl}benzamide] had an inhibition at 25 µM of 69%. Turning to `O=C(Nc1nnc(NCCc2cccs2)s1)c1ccc(I)cc1` [compound 430, 4-iodo-N-(5-{[2-(2-thienyl)ethyl]amino}-1,3,4-thiadiazol-2-yl)benzamide], the inhibition at 25 µM is 23.1%. On the same count and under the same terms, for `CCCCCCCC/C=C/CCCCCCCC(=O)Nc1nnc(NC2CCc3ccccc32)s1` (stereo not drawn) [compound 279, (E)-N-[5-(2,3-dihydro-1H-inden-1-ylamino)-1,3,4-thiadiazol-2-yl]-9-octadecenamide] the value was 37.4%. In the case of `CCCCCCCC/C=C/CCCCCCCC(=O)Nc1nnc(NCCCn2ccnc2)s1` [compound 378, (E)-N-(5-{[3-(1H-imidazol-1-yl)propyl]amino}-1,3,4-thiadiazol-2-yl)-9-octadecenamide], the inhibition at 25 µM was 27.8%. On to `O=C(Nc1nnc(NCC2CC2)s1)c1ccc(I)cc1` [compound 470, N-{5-[(cyclopropylmethyl)amino]-1,3,4-thiadiazol-2yl}-4-iodobenzamide], for which the inhibition at 25 µM turned out to be 20%.

In the case of `O=C(Nc1nnc(NCCNc2ccccc2)s1)c1ccc([N+](=O)[O-])o1` [compound 264, N-{5-[(2-anilinoethyl)amino]-1,3,4-thiadiazol-2-yl}-5-nitro-2-furamide], the inhibition at 25 µM amounted to 39.2%. Turning to `COc1ccccc1C(=O)Nc1nnc(NC2CCCc3ccccc32)s1` (stereo not drawn) [compound 428, 2-methoxy-N-[5-(1,2,3,4-tetrahydro-1-naphthalenylamino)-1,3,4-thiadiazol-2-yl]benzamide], the inhibition at 25 µM worked out at 23.3%. In the case of `O=C(Nc1nnc(NCCCn2ccnc2)s1)c1ccc(Br)cc1` [compound 272, 4-bromo-N-(5-{[3-(1H-imidazol-1-yl)propyl]amino}-1,3,4-thiadiazol-2-yl)benzamide], at 25 µM the inhibition was 38.2%. On to `O=C(/C=C/c1ccccc1)Nc1nnc(NCCCn2ccnc2)s1` [compound 133, (E)-N-(5-{[3-(1H-imidazol-1-yl)propyl]amino}-1,3,4-thiadiazol-2-yl)-3-phenyl-2-propenamide], for which the inhibition at 25 µM is 57%.

Regarding `CCOC(=O)N1CCC(Nc2nnc(NC(=O)c3c(OCC)ccc4ccccc34)s2)CC1` [compound 86, ethyl 4-[(5-{[(2-ethoxy-1-naphthyl)carbonyl]amino}-1,3,4-thiadiazol-2-yl)amino]tetrahydro-1(2H)-pyridinecarboxylate], 25 µM produced 67% inhibition. Consider `CCOc1ccc2ccccc2c1C(=O)Nc1nnc(NC2CCCCCC2)s1` [compound 157, N-[5-(cycloheptylamino)-1,3,4-thiadiazol-2-yl]-2-ethoxy-1-naphthamide], for which the inhibition at 25 µM stood at 53%.

In turn, `O=C(/C=C/c1ccccc1Cl)Nc1nnc(NC2CC2)s1` [compound 353, (E)-3-(2-chlorophenyl)-N-[5-(cyclopropylamino)-1,3,4-thiadiazol-2-yl]-2-propenamide] returned an inhibition at 25 µM of 30.2%. The compound `CCSCCNc1nnc(NC(=O)c2cc3ccccc3s2)s1` [compound 466, N-(5-{[2-(ethylsulfanyl)ethyl]amino}-1,3,4-thiadiazol-2-yl)-1-benzothiophene-2-carboxamide] had an inhibition at 25 µM of 20.1%. `O=C(Nc1nnc(NCCc2c[nH]c3ccccc23)s1)c1cc2ccccc2s1` [compound 269, N-(5-{[2-(1H-indol-3-yl)ethyl]amino}-1,3,4-thiadiazol-2-yl)-1-benzothiophene-2-carboxamide]: 25 µM produced 38.5% inhibition.

`O=C(Nc1nnc(NCCCNC2CCCCC2)s1)c1ccc(S(=O)(=O)F)cc1` [compound 189, 4-{[(5-{[3-(cyclohexylamino)propyl]amino}-1,3,4-thiadiazol-2-yl)amino]carbonyl}benzenesulfonyl fluoride]: the “% Inhib” value is 47.1%.

The compound `CCCCC(CC)CNc1nnc(NC(=O)c2c(Cl)cccc2Cl)s1` (stereo not drawn) [compound 283, 2,6-dichloro-N-{5-[(2-ethylhexyl)amino]-1,3,4-thiadiazol-2-yl}benzamide] returned an inhibition at 25 µM of 37%. `COc1ccccc1C(=O)Nc1nnc(NCC2CCCCC2)s1` [compound 304, N-{5-[(cyclohexylmethyl)amino]-1,3,4-thiadiazol-2-yl}-2-methoxybenzamide] registered an inhibition at 25 µM of 34.6%. Compound `O=C(/C=C/c1ccccc1Cl)Nc1nnc(NCc2ccc(F)cc2)s1` [compound 67, (E)-3-(2-chlorophenyl)-N-{5-[(4-fluorobenzyl)amino]-1,3,4-thiadiazol-2-yl}-2-propenamide] registered an inhibition at 25 µM of 71.7%. For `CC(C)c1cc(C(C)C)c(C(=O)Nc2nnc(NCCC(=O)OC(C)(C)C)s2)c(C(C)C)c1` [compound 388, tert-butyl 3-({5-[(2,4,6-triisopropylbenzoyl)amino]-1,3,4-thiadiazol-2-yl}amino)propanoate], the inhibition at 25 µM was found to be 26.6%. The same measure, in the same setting: as for `CC1(C)C2CC[C@@H](CNc3nnc(NC(=O)c4ccc5c(c4)C(=O)OC5=O)s3)C1C2` (stereo partly drawn) [compound 25, N-[5-({[(2R)-6,6-dimethylbicyclo[3.1.1]hept-2-yl]methyl}amino)-1,3,4-thiadiazol-2-yl]-1,3-dioxo-1,3-dihydro-2-benzofuran-5-carboxamide], the figure is 93.9%; as for `O=C(CCCCCl)Nc1nnc(NC2CCCCCC2)s1` [compound 316, 5-chloro-N-[5-(cycloheptylamino)-1,3,4-thiadiazol-2-yl]pentanamide], 33.6%; as for `O=C(Nc1nnc(NCCNc2ccccc2)s1)c1ccc(I)cc1` [compound 339, N-{5-[(2-anilinoethyl)amino]-1,3,4-thiadiazol-2-yl}-4-iodobenzamide], 31.5%. The compound `O=C(/C=C/c1ccccc1Cl)Nc1nnc(NCCCNC2CCCCC2)s1` [compound 75, (E)-3-(2-chlorophenyl)-N-(5-{[3-(cyclohexylamino)propyl]amino}-1,3,4-thiadiazol-2-yl)-2-propenamide] showed an inhibition at 25 µM of 68.8%.

As to `O=C(/C=C/c1ccccc1)Nc1nnc(NCC2CCCCC2)s1` [compound 360, (E)-N-{5-[(cyclohexylmethyl)amino]-1,3,4-thiadiazol-2-yl}-3-phenyl-2-propenamide], the inhibition at 25 µM was 29%. On the same count and under the same terms, for `O=C(/C=C/c1ccccc1)Nc1nnc(NCc2cccc3ccccc23)s1` [compound 329, (E)-N-{5-[(1-naphthylmethyl)amino]-1,3,4-thiadiazol-2-yl}-3-phenyl-2-propenamide] the value was 32.4%. On to `CCCCCCCCCCCNc1nnc(NC(=O)c2ccc(S(=O)(=O)F)cc2)s1` [compound 49, 4-({[5-(undecylamino)-1,3,4-thiadiazol-2-yl]amino}carbonyl)benzenesulfonyl fluoride], for which the “% Inhib” value turned out to be 80.3%.

As for `O=C(Nc1nnc(NCCC(c2ccccc2)c2ccccc2)s1)c1cc(F)cc(F)c1` [compound 281, N-{5-[(3,3-diphenylpropyl)amino]-1,3,4-thiadiazol-2-yl}-3,5-difluorobenzamide], at 25 µM the inhibition was 37.3%. For the compound `O=C(Nc1nnc(NC2CCCCCC2)s1)c1ccc2c(c1)C(=O)OC2=O` [compound 29, N-[5-(cycloheptylamino)-1,3,4-thiadiazol-2-yl]-1,3-dioxo-1,3-dihydro-2-benzofuran-5-carboxamide], the inhibition at 25 µM came to 92.4%.

In general, inhibition refers to the drop in the measured response relative to a control, in per cent. Higher therefore signals strong suppression.

These data come from patent US6150385A, “1,3,4-thiadiazoles useful for the treatment of CMV infections” (Pharmacia & Upjohn Company, priority 1999, dated 2000).
